US11267852B2, “Cell lines for screening odorant and aroma receptors” (Firmenich SA, priority 2015, dated 2022)
One block for each compound: values may come before it.

Key:
[1] = test system: Olfr742; test: cell-based odorant assay, cAMP increase (HTRF), Olfr742; design: species or system mouse
Description: (§1) Functional dose-response experiments were performed in order to evaluate the level of functional enhancement of activity of odorant receptors in the modified cell line. Odorant receptors were modified at their N-terminus with short polypeptide sequences or tags [e.g. Flag (SEQ ID NO: 15), Rho (SEQ ID NO: 17; 20 first amino acids of the bovine rhodopsin receptor), or Lucy (SEQ ID NO: 19)], transiently expressed in WT or modified HEK293T cells, and stimulated with odorant compounds to determine the activity of the receptors. FIGS. 7 and 8) Using a cell-based odorant binding assay, the activity of Olfr741 (SEQ ID NO: 4) and Olfr742 (SEQ ID NO: 6) to indole was tested in the engineered RTP1 cell line and compared to HEK293T lacking RTP1 protein expression. Odorant receptors were transfected into both cell lines and exposed to increasing concentrations of indole. Odorant-induced activity was detected by measuring the level of cAMP increase in the cytosol using an HTRF based kit (CisBio, cAMP dynamic 2 kit, cat #62AM4PEJ). FIGS. 9 and 10) Using the same cell-based odorant binding assay, the activity of Olfr96 (SEQ ID NO: 8) and OR11A1 (SEQ ID NO: 10) to vulcanolide was tested in the engineered RTP1 expressing cell line and compared to HEK293T lacking RTP1 protein expression. The activity of Olfr740 (SEQ ID NO: 12) to indole was also tested in both cellular backgrounds. […]

[2] = test system: Olfr741; test: cell-based odorant assay, cAMP increase (HTRF), Olfr741; design: species or system mouse
Description: as §1

[3] = test system: Olfr740; test: cell-based odorant assay, cAMP increase (HTRF), Olfr740; design: species or system mouse
Description: as §1

[4] = biological target: T1, OR1A1 (Homo sapiens, UniProt Q9P1Q5); test: cell-based odorant assay, cAMP increase (HTRF), OR1A1; conditions: modified RTP1 HEK293T cell line compared to unmodified control cell line
T1 construct: expressed in transfected cells
T1 sequence (Q9P1Q5 1-309): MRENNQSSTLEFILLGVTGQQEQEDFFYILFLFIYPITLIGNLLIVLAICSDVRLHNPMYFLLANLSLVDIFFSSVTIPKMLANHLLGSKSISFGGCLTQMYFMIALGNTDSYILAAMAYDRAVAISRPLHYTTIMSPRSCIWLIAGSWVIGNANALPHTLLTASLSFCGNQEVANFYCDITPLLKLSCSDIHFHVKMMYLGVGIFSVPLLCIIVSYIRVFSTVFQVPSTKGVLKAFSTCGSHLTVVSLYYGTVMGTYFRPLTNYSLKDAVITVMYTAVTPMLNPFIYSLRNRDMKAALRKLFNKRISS

[5] = test system: Olfr96; test: cell-based odorant assay, cAMP increase (HTRF), Olfr96; design: species or system mouse
Description: as §1

[6] = biological target: T2, OR11A1 (Homo sapiens, UniProt Q9GZK7); test: cell-based odorant assay, cAMP increase (HTRF), OR11A1
T2 construct: expressed in transfected cells
T2 sequence (Q9GZK7 1-315): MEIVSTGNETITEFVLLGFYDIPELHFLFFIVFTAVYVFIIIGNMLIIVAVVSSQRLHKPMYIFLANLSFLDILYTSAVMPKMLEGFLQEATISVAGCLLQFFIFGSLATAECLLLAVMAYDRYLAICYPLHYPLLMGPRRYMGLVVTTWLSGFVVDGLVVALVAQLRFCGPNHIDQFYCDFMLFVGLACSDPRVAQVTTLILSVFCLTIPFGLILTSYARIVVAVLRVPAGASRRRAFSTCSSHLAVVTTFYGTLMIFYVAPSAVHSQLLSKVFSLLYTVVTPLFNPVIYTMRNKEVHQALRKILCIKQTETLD
Description: as §1

[7] = modified RTP1 HEK293T cell line, increasing concentrations
[8] = unmodified control HEK293T lacking RTP1 expression

SMILES: c1ccc2[nH]ccc2c1 [indole]
- receptor activity (cAMP increase), dose-response [1, 7]: dose-dependent increase of receptor activity
- receptor activity (cAMP increase), dose-response [1, 8]: not in the unmodified control cell line
- receptor activity (cAMP increase), dose-response [2, 7]: dose-dependent increase of receptor activity
- receptor activity (cAMP increase), dose-response [2, 8]: not in the unmodified control cell line
- receptor activity (cAMP increase), dose-response [3, 7]: dose-dependent increase of receptor activity
- receptor activity (cAMP increase), dose-response [3, 8]: not in the unmodified control cell line

SMILES: C=C(C)C1CC=C(C)C(=O)C1 (stereo not drawn) [carvone-(−)]
- receptor activity (cAMP increase), dose-response [4]: more potent dose-dependent increase of receptor activity

- receptor activity (cAMP increase), dose-response [6, 8]: not in the unmodified control cell line
SMILES: Cc1cc2c(cc1C=O)C(C)(C)[C@@H](C)[C@H](C)C2(C)C [vulcanolide]
- receptor activity (cAMP increase), dose-response [5, 7]: dose-dependent increase of receptor activity
- receptor activity (cAMP increase), dose-response [5, 8]: not in the unmodified control cell line
- receptor activity (cAMP increase), dose-response [6, 7]: dose-dependent increase of receptor activity
